One data set relates to cultured DRG neurons. The following applies: morphologically similar to that induced by axotomy (Wang et al. 2000; FIG. 2); cited from earlier work.
The test system of a further data set is DRG axons. The data set is described as follows: DRG axotomy model: axon degeneration 24 hours post-axotomy (phase contrast, degeneration index). In kind it is cell-based, mouse. From the text: In these experiments, the inventors cultured embryonic mouse dorsal root ganglion cells (DRGs) for 14-16 days to allow their axons to radiate from the central core of cell bodies before severing the axons with a micro-scalpel. […] Axotomized DLK mutant axons have a 65%+/−3.2% (se) decrease in degeneration index (DI) relative to controls (p<0.0001, n=8 individual axotomized DRG cultures per condition, t-test). Vincristine treatment induces 59%+/−6.3% (se) less DI in DLK mutants relative to controls (p<0.002, n=7 DRG cultures per condition, t-test). […] The initially smooth and continuous axonal processes become rough and irregular axon fragments. The extent of axon breakdown was quantified by measuring the fraction of axonal area occupied by fragmented axons (degeneration index, DI). […] Because non-neuronal cells are eliminated in this DRG culture system, we concluded that DLK must be required within neurons themselves for the normal axon degenerative response.
In these experiments, to determine whether the axon degeneration pathway requires either JNK or p38, we used pharmacological inhibitors of each MAP kinase in the DRG axotomy model. Wild-type DRG cultures were treated with the JNK inhibitor SP600215 and the p38 inhibitor SB203580 starting from 24 hours before axotomy and for the remainder of the experiment.
Unless noted, vehicle and inhibitors were added 24 hours pre-axotomy and left on for the duration of the experiment. FIG. 3A: Vehicle (DMSO). FIG. 3B: SB203580 (P38 inhibitor). FIG. 3C: SP600215 (JNK inhibitor). FIG. 3D: SP600215 added 24 hr pre-axotomy, and removed just before axotomy. FIG. 3E: SF600215 added concurrently with axotomy. FIG. 3F: SP600215 added 3 hours post-axotomy. FIG. 3G: SP600215 added concurrent with axotomy and removed 3 hours post-axotomy.

For `CC[C@]1(O)C[C@H]2CN(CCc3c([nH]c4ccccc34)[C@@](C(=O)OC)(c3cc4c(cc3OC)N(C=O)[C@H]3[C@@](O)(C(=O)OC)[C@H](OC(C)=O)[C@]5(CC)C=CCN6CC[C@]43[C@@H]65)C2)C1` [vincristine], the “axon degeneration triggered by the drug” value in the data set with cultured DRG neurons is given as “triggers an axon degeneration”.
For the compound `O=C1c2ccccc2-c2n[nH]c3cccc1c23` [SP600215, Anthra[1,9-cd]pyrazol-6(2H)-one; 1,9-pyrazoloanthrone], the “degeneration of DRG axons following axotomy” value in the data set on DRG axons (added 3 hours post-axotomy and continued for the rest of the experiment (FIG. 3F)) was “did not decrease axon degeneration”; in the data set with DRG axons (added 24 hr pre-axotomy, and removed just before axotomy (FIG. 3D)) it was “not protective”; with DRG axons (added concurrent with axotomy and removed 3 hours post-axotomy (FIG. 3G), vs vehicle (DMSO)), “significantly less degenerated than A”; with DRG axons (added concurrently with axotomy (FIG. 3E)), “protective”; in the data set with DRG axons (inhibitor added 24 hours pre-axotomy and left on for the duration of the experiment, 24 hours post-axotomy, vs vehicle (DMSO) (FIG. 3B, 3C)) it was “significantly less degenerated than A”.

The values above are taken from US8754060B2, “Methods and compositions for inhibition of axonal degeneration by modulation of the DLK/JNK pathway” (Washington University, priority 2008, dated 2014).
